Results from patent US20080262235A1, “Method and Apparatus for Producing Oxidized Compound” (priority 2005, published 2008).
“And” between values parts separate entries of the source, which are not always exact repeats. Identical values can stand only once.

Legend:
Assay type in all cases: physicochemical
[1] = Stability of crystals obtained in Example 2 (statement only)
[2] = Test 1: storage stability of lansoprazole crystals, content by HPLC; settings: for Residual ratio after stored for 6 months at 40° C.: [(Content after stored for 6 months at 40° C.)/(Initial Content)]×100; for Initial Content / Content after stored for 6 months at 40° C.: content of lansoprazole in crystals, wt %, HPLC; for Initial Content: before storage
Text: The stability of the crystals of the solvate of lansoprazole (hereinafter, referred to as lansoprazole (1)) obtained by vacuum drying the wet crystals of the solvate of ethanol-water of lansoprazole obtained according to the method in EXAMPLE 2, was compared to the stability of the white crystals of lansoprazole (hereinafter, referred to as lansoprazole (2)) obtained according to the method in EXAMPLE 3.
Herein, the “content” in Table 1 refers to the content of lansoprazole in lansoprazole crystals expressed in wt %, and was measured by HPLC technique (analyzed under each of following conditions: for (1), Column: NOVA PAK, C18, 3.9×150 mm, Temperature: constant temperature of around 25° C., Mobile phase: solution prepared by adjusting the pH of methanol:water:triethylamine (weight ratio=60:40:1) with phosphoric acid to 7.0, Flow rate: 0.5 ml/min, Detector: UV 285 nm, and for (2), Column: CAPCELL PAC, C18, SG120, 4.6×250 mm, Temperature: constant temperature of around 25° C., Mobile phase: solution prepared by adjusting the pH of acetonitrile:water:triethylamine (weight ratio=40:60:1) with phosphoric acid to 7.0, Flow rate: 1 ml/min, Detector: UV 285 nm). The “residual ratio after stored for 6 months at 40° C.” was calculated by [(Content after stored for 6 months at 40° C.)/(Initial Content)]×100 (%).

[3] = Test 2: crystal stability by coloration, absorbance (390 nm) of crystals dissolved in dimethylformamide; settings: for Absorbance of solution of crystals just after preparation / Absorbance of solution of crystals after stored at 60° C. for 15 days: 1 g crystals in 10 mL dimethylformamide; for Change in Absorbance: after 60° C. for 15 days minus just after preparation
Procedure: In the method according to EXAMPLE 3, the amount of ethanol added to the mixed solution in which the wet crystals of the solvate of ethanol-water of lansoprazole are suspended was changed, and the stability of thus obtained crystals was compared.
The crystals obtained from each of mixed solution systems shown in Table 2 below were each dissolved in dimethylformamide just after the preparation and after stored at 60° C. for 15 days, and the absorbance (390 nm) of thus obtained solutions of crystals was measured. The degree of coloration was compared as an indicator of the crystal stability.
The absorbance of the solution prepared by dissolving 1 g of crystals into 10 mL of dimethylformamide was measured with the use of a spectral photometer (Jasco No. 0214332).
In addition, the pH of each mixed solution in which crystals are suspended was adjusted to about 9 with an aqueous ammonia solution.

Structure (SMILES) | Residual ratio after stored for 6 months at 40° C. [2] | Initial Content [2] | Content after stored for 6 months at 40° C. ([2]; 6 months at 40° C.) | Absorbance of solution of crystals just after preparation [3] | Absorbance of solution of crystals after stored at 60° C. for 15 days [3] | Change in Absorbance [3] | also measured
Cc1c(OCC(F)(F)F)ccnc1C[S+]([O-])c1nc2ccccc2[nH]1 (racemic) [lansoprazole I type crystal, (+/−)-2-(((3-methyl-4-(2,2,2-trifluoroethoxy)-2-pyridyl)methyl)sulfinyl)benzimidazole] | – | – | – | – | – | – | stability of obtained crystals [1]: stable
Cc1c(OCC(F)(F)F)ccnc1C[S+]([O-])c1nc2ccccc2[nH]1 (racemic) [lansoprazole (2), (+/−)-2-(((3-methyl-4-(2,2,2-trifluoroethoxy)-2-pyridyl)methyl)sulfinyl)benzimidazole] | ~100% | 99.7% and 99.8% | 99.6% and 99.8% | – | – | – | stability of crystal compared to lansoprazole (1) ([2]; 6 months at 40° C.): more excellent stability; Residual ratio after stored for 6 months at 40° C. ([2]; listed as (2)): 99.9% and 100.0%
Cc1c(OCC(F)(F)F)ccnc1C[S+]([O-])c1nc2ccccc2[nH]1 (racemic) [About 160:1, (+/−)-2-(((3-methyl-4-(2,2,2-trifluoroethoxy)-2-pyridyl)methyl)sulfinyl)benzimidazole] | – | – | – | 0.054 | 1.135 | 1.081 | –
Cc1c(OCC(F)(F)F)ccnc1C[S+]([O-])c1nc2ccccc2[nH]1 (racemic) [lansoprazole (1), (+/−)-2-(((3-methyl-4-(2,2,2-trifluoroethoxy)-2-pyridyl)methyl)sulfinyl)benzimidazole] | 91.3% and 84.7% and 86.8% | 99.2% and 99.3% and 99.1% | 90.6% and 84.1% and 86.0% | – | – | – | –
Cc1c(OCC(F)(F)F)ccnc1C[S+]([O-])c1nc2ccccc2[nH]1 (racemic) [About 40:1, (+/−)-2-(((3-methyl-4-(2,2,2-trifluoroethoxy)-2-pyridyl)methyl)sulfinyl)benzimidazole] | – | – | – | 0.056 | 0.964 | 0.908 | –
Cc1c(OCC(F)(F)F)ccnc1C[S+]([O-])c1nc2ccccc2[nH]1 (racemic) [Ethanol non-added, (+/−)-2-(((3-methyl-4-(2,2,2-trifluoroethoxy)-2-pyridyl)methyl)sulfinyl)benzimidazole] | – | – | – | 0.046 | 1.703 | 1.657 | –
